Where no end group is shown, it is not given here.

The values that follow come from US20030224021A1, “Methods of using epitope peptides of human pathogens” (Regents of the University of Minnesota, priority 1998, published 2003).

One assay has as its system anti-DTD CD4+ cell lines. The assay can be described thus: Proliferation assay (3H-thymidine) with anti-DTD CD4+ cell lines challenged with individual synthetic DTX peptides. The format is cell-based, human. The following applies: seven subjects of different HLA class II haplotype; peptide 10 μg/ml. The protocol: Propagation of CD4+ cell lines specific for DTD and proliferation assay. PBMC were suspended (1-2×10^6 cell/ml) in TCM containing 10 μg/ml DTD, and cultivated in T25 flasks (Costar, Cambridge, Mass.) for 1 week. The reactive lymphoblasts were isolated on Percoll gradients, expanded in TCM containing T-cell growth factor (TCGF, Lymphocult, Biotest Diagnostic, Dreieich, Germany, at a final concentration of IL-2 of 10 units/ml), and enriched in DTD-specific cells by weekly stimulations with the same amount of DTD plus irradiated (4,000 rads: 1 rad=0.01 Gy) autologous PBMC as APC. The response to DTD and PHA of the T cell lines obtained was tested weekly.
Proliferation assays with CD4+ cell lines for DTD. Proliferation assays were carried out with CD4+ lines, using 2×10^4 cells/well, irradiated autologous PBMC (2×10^5 cells/well) as APC, and the Ags described above for CD4+ enriched PBMC. Basal growth rate (Blank) was determined from triplicate wells containing CD4+ cell lines cultivated without any stimulus. After one day, the cultured cells were pulsed for 16 hours with ^3H-thymidine, collected, and the ^3H-thymidine incorporation measured as described above for CD4+ enriched PBMC.
Sequence segments of DTX recognized by anti-DTD T cell lines. The DTX epitopes recognized by the CD4+ cell lines were identified in proliferation assays using individual synthetic DTX-specific peptides. […] The consistency of the recognition was verified by repeating the test 1-2 weeks later.

Another assay concerns PBMC. The assay can be described thus: PBMC of 49 HLA heterogenous subjects challenged with DTX and TTX universal epitope peptides. Type of assay: cell-based, human. The following applies: share of the 49 subjects whose PBMC responded. An excerpt:
PBMC of 49 randomly selected, HLA heterogenous human subjects were challenged with each of the identified DTX and TTX universal epitope peptides. Generally, the PBMCs of each subject recognized several universal epitopes and all but one recognized at least one of the peptides.

On to PVFAGANYAAWAVNVAQVI [271-290], for which, in the assay with anti-DTD CD4+ cell lines, the “recognition by anti-DTD CD4+ cell lines” value was “recognized by all seven individuals”. Moreover, the “positive response (1%)” value in the assay with PBMC amounted to 84%. For QGESGHDIKITAENTPLPIA [411-430], the “recognition by anti-DTD CD4+ cell lines” value in the assay with anti-DTD CD4+ cell lines is given as “recognized by all seven individuals”. Besides, the “positive response (1%)” value in the assay on PBMC worked out at 70%. “TDD: column head of Table 4 beside the TTD sequence segments; presumably tetanus toxoid”: the “positive response (1%)” value in the assay on PBMC is on record as 96%.

As for “Gln-Ser-Ile-Ala-Leu-Ser-Ser-Leu-Met-Val-Ala-Gln-Ala-Ile-Pro-leu-Val-Gly-Glu-Leu [331-350]”, the “recognition by anti-DTD CD4+ cell lines” value with anti-DTD CD4+ cell lines is “recognized by all seven individuals”. Besides, in the assay with PBMC, the “positive response (1%)” value was 80%. The matching figures for GVLLPTIPGKLDVNKSKTHI [431-450]: “recognized by all seven individuals” and 70%. VHHNTEEIVAQSIALSSLMV [321-340]: in the assay on anti-DTD CD4+ cell lines, the “recognition by anti-DTD CD4+ cell lines” value is recorded as “recognized by all seven individuals”. For the same substance, the “positive response (1%)” value in the assay on PBMC was 76%. Regarding VDIGFAAYNFVESIINLFQVV [351-370], the “recognition by anti-DTD CD4+ cell lines” value in the assay on anti-DTD CD4+ cell lines is on record as “recognized by all seven individuals”. Moreover, in the assay with PBMC, the “positive response (1%)” value came out at 71%.
